Data from patent publication US20120058936A1, “COMPOSITIONS AND METHODS FOR ELIMINATION OF GRAM NEGATIVE BACTERIA” (ASSISTANCE PUBLIQUE - HOPITAUX DE PARIS, priority 2009, published 2012).
Entries after “also recorded” stand apart in the source; their conditions may differ.

Columns and labels:
[1] = system: enterobacteria present in the colon; conditions: oral treatment; azithromycin daily dose of 500 mg; cited from earlier work
[2] = BioDis (USP III) release test in simulated human gastrointestinal fluids; type: physicochemical; conditions: Biodiss system; successively soaked in simulated gastric, proximal jejunum, late jejunum, ileum and colon fluids (FIG. 2)
Description: In a particular embodiment, the intermediate coating is selected in order to achieve a delayed and/or controlled release of the antibacterial, as measured by in vitro testing such as BioDis dissolution tester (USP III release apparatus). In this system, the dosage form is successively placed into glass tubes (filled with approx 200 mL of dissolution media) corresponding to the different sections of the gastrointestinal tract, such as described by Fotaki and Coll, in European Journal of Pharmaceutics and Biopharmaceutics 73 (2009) 115-120. This allows a good simulation of in vivo release before testing into mammals. pH, fed state and various other physiological conditions can be tested. Using the BioDis system, it is possible for those skilled in the art to finely tune the formulation to achieve a desired pre-determined delayed release. It will be understood that this method is also useful for testing any kind of drug delivery system intended to deliver the antimicrobial(s) in a desired part of the intestine.
Legend: FIG. 1: Release of azithromycine in simulated human gastrointestinal tract using a Biodis system. The azithromycin cellet formulation, coated with 35% FS30D (Batch GL-058B4), is successively soaked into simulated fluids such as gastric, proximal jejunum, late jejunum, Ileum and colon. […]

erythrocyte = conditions: MIC for many bacteria; cited from earlier work

Molecule: CC[C@H]1OC(=O)[C@H](C)[C@@H](O[C@H]2C[C@@](C)(OC)[C@@H](O)[C@H](C)O2)[C@H](C)[C@@H](O[C@@H]2O[C@H](C)C[C@H](N(C)C)[C@H]2O)[C@](C)(O)C[C@@H](C)CN(C)[C@H](C)[C@@H](O)[C@]1(C)O [Azithromycin]
- elimination of enterobacteria from the colon [1]: effective to eliminate Gram-negative enterobacteria from the colon

Molecule: CC[C@H]1OC(=O)[C@H](C)[C@@H](O[C@H]2C[C@@](C)(OC)[C@@H](O)[C@H](C)O2)[C@H](C)[C@@H](O[C@@H]2O[C@H](C)C[C@H](N(C)C)[C@H]2O)[C@](C)(O)C[C@@H](C)C(=O)[C@H](C)[C@@H](O)[C@]1(C)O [erythromycin]
- elimination of enterobacteria from the colon [1]: eliminated from the lumen

Molecule: colistin
- Release of colistin in simulated human gastrointestinal tract [2]: improves the release of colistin; also recorded: prevent from total colistin release

Molecule: gramicidin S
- concentration causing erythrocyte lysis relative to the MIC (erythrocyte): threefold higher than the MIC
